Measured values: patent US4673684A, “Amide derivatives and 5-lipoxygenase inhibitors containing the same as an active ingredient” (Terumo Corporation, priority 1984, dated 1987)

What follows are molecules tested against T1, 5-lipoxygenase (Mus musculus, UniProt P48999) (assay: 5-Lipoxygenase-inhibiting Activity (decrease in 5-HETE and LTB4 formed from radiolabelled arachidonic acid, enzyme solution from mouse mastcytoma cells P-815)). Conditions: 5-HETE and LTB4 formation; mouse mastcytoma P-815 enzyme solution; 37° C., 5 min; pH 7.4; with indomethacin; read-out: 50% Inhibitory concentration IC50.
T1 construct: The supernatant is used as a 5-lipogenase enzyme solution; endogenous in cells
T1 sequence (P48999 1-674): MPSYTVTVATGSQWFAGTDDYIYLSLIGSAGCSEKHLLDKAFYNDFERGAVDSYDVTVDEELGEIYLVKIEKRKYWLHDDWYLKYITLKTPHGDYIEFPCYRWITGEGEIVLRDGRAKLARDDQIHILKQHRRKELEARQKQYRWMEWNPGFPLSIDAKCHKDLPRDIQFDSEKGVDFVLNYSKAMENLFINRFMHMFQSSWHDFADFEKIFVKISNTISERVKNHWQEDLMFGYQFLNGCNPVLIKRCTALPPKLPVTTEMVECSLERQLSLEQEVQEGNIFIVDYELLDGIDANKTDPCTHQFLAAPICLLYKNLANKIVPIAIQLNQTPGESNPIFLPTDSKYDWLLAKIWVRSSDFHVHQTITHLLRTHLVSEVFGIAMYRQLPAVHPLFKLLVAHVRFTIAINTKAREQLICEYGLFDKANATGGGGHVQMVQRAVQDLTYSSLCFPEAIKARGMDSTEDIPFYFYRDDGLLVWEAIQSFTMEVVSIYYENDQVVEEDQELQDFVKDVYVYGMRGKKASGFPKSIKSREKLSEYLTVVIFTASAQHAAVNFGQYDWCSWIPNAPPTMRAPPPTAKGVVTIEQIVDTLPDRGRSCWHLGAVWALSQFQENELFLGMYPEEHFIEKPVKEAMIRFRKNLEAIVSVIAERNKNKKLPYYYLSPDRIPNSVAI
Format: biochemical
Method: Mouse mastcytoma cells P-815 are diluted in a culture solution, containing 90% Eagle Basic Medium (manufactured by Gibco Laboratories) to 5×10^4 cells/ml. The diluted solution is cultivated with shaking in air at 37° C. for 48 hours. Then, the culture solution is cooled with ice and centrifuged to collect the cells. The cells are suspended in a phosphate buffer solution at pH 7.4 at a concentration of 2×10^7 cells/ml. The suspension is treated in a ultrasonic cell disintegrater and then centrifuged at 10,000 r.p.m. for 10 min. The supernatant is used as a 5-lipogenase enzyme solution. In test tubes are placed 20 μl of radiolabelled arachidonic acid ([…]), indomethacin (2×10^-8 mol) and an amide derivative to be tested, respectively. To each of the test tubes are added 0.45 ml of a phosphate buffer solution, 0.45 ml of the above-prepared suspension, 0.45 ml of the above-prepared enzyme solution and 0.1 ml of 8 mM CaCl2 (calcium chloride). The mixture is reacted at 37° C. for 5 min. After cooled with ice, 60 μl of 1N-HCl (hydrochloric acid is added to the reaction mixture, which is then extracted with 8 ml of ethyl acetate. The extract is concentrated, and the concentrate is developed by spotting on a silica gel thin layer plate (Merck 60F 254). Measurement of the inhibitory activity is made by collecting fractions corresponding to lipoxygenase products 5-HETE (5(s)-hydroxy-6,8,11,14-eicosatetraenic acid) and LTB4 (leucotriene B4) and determining the radioactivity by a liquid scintillation counter. The lipoxygenase inhibiting activity is determined by decrease in the amount of the above-mentioned 5-lipoxygenaseproducts. […] 50% inhibitory concentration or 30% inhibitory concentration as indicated in the table means the concentration of an amide derivative required for reducing the amount of the above-mentioned 5-lipoxygenase products (5-HETE and LTB4) to 50% or 30% of the amount when the amount of 5-HETE and LTB4 produced in the absenced of the amide derivative is 100%.
Molecule `COc1cc(/C=C/C(=O)NCCN2CCN(C(c3ccccc3)c3ccc(Cl)cc3)CC2)ccc1O` (stereo not drawn) [Example 1, N-(p-chlorobenzhydryl)-N'-[2-{3-(3-methoxy-4-hydroxyphenyl)-2-propenoyl}-aminoethyl]piperazine] has an IC50 of 0.5 µM.
`COc1cc(/C=C/C(=O)NCCN2CCN(C(c3ccccc3)c3ccccc3)CC2)ccc1O` [Example 2, N-benzhydryl-N'-[2-{3-(3-methoxy-4-β-hydroxyphenyl)-2-propenoyl}aminoethyl]piperazine] gave an IC50 of 0.6 µM.
Molecule `CC/C=C\C/C=C\C/C=C\CCCCCCCC(=O)NCCCCNC(=O)/C=C/c1ccc(O)c(OC)c1` [Example 3, N-[3-(3-methoxy-4-hydroxyphenyl)-2-propenoyl]-N'-[9,12,15-octadecatrienoyl]-1,4-diaminobutan] has an IC50 of 0.9 µM.
`COc1cc(/C=C/C(=O)NCCCCNC(=O)/C=C/c2ccc(O)c(OC)c2)ccc1O` [Example 4, N,N'-bis-{3-(3-methoxy-4-hydroxyphenyl)-2-propenoyl}-1,4-diaminobutane] was tested, and the IC50 was 2 µM.
`CC(=O)OCc1cnc(C)c(O)c1CNC(=O)/C=C/c1ccc(O)c(O)c1` [Example 5, N-caffeoyl-o-acetylpyridoxane] showed an IC50 of 1 µM.
`CC/C=C\C/C=C\C/C=C\C/C=C\C/C=C\C/C=C\CCC(=O)NCCCCNC(=O)/C=C/c1ccc(O)c(O)c1` [Example 6, N-[3-(3,4-dihydroxyphenyl)-2-propenoyl]-N'-[4,7,10,13,16,19-docosahexaenoyl]1,4-diaminobutane] gave an IC50 of 0.06 µM.
For `O=C(/C=C/c1ccc(O)c(O)c1)NCCCCNC(=O)/C=C/c1ccc(O)c(O)c1` [Example 7, N,N'-bis-[(3,4-dihydroxyphenyl)-2-propenoyl]-1,4-diaminobutane], the IC50 was 0.5 µM.
Work on `O=C(/C=C/c1ccc(O)c(O)c1)N1CCN(C(c2ccccc2)c2ccccc2)CC1` [Example 8, N-benzhydryl-N'-{(3,4-dihydroxyphenyl)-2-propenoyl}-piperazine] yielded an IC50 of 0.1 µM.
With `O=C(/C=C/c1ccc(O)c(O)c1)NCCN1CCN(C(c2ccccc2)c2ccccc2)CC1` [Example 9, N-benzhydryl-N'-[2-{3-(3,4-dihydroxyphenyl)-2-propenoyl}-aminoethyl]piperazine] the IC50 was 0.1 µM.
`O=C(/C=C/c1ccc(O)c(O)c1)Nc1cc(Cl)ccc1O` [Example 10, N-{3-(3,4-dihydroxyphenyl)-2-propenoyl}-5-chloro-2-hydroxyaniline] gave an IC50 of 0.03 µM.
Molecule `O=C(/C=C/c1ccc(O)c(O)c1)Nc1ccccc1O` [Example 11, N-{3-(3,4-dihydroxyphenyl)-2-propenoyl}-o-aminophenol] has an IC50 of 0.04 µM.
`O=C(/C=C/c1ccc(O)c(O)c1)NCCN1CCN(C(c2ccccc2)c2ccc(Cl)cc2)CC1` (stereo not drawn) [Example 12, N-(p-chlorobenzhydryl)-N'-[2-{3-(3,4-dihydroxyphenyl)-2-propenoyl}aminoethyl]piperazine] was tested, and the IC50 was 0.08 µM.
Molecule `COc1cc(/C=C/C=C/C(=O)Nc2ccccc2C(=O)O)ccc1O` [Example 13, N-5-(3-methoxy-4-hydroxyphenyl)-2,4-pentadienoylanthranilic acid] has an IC50 of 0.6 µM.
`COc1cc(/C=C/C=C/C(=O)NCCCCNC(=O)/C=C/C=C/c2ccc(O)c(OC)c2)ccc1O` [Example 14, N,N'-di{5-(3-methoxy-4-hydroxyphenyl)-2,4-pentadienoyl}-1,4-diaminobutane] gave an IC50 of 0.1 µM.
For `COc1cc(/C=C/C=C/C(=O)N2CCN(C(c3ccccc3)c3ccccc3)CC2)ccc1O` [Example 15, 1-benzhydryl-4-{5-(3-methoxy-4-hydroxyphenyl)-2,4-pentadienoyl}piperazene], the IC50 was 0.09 µM.
With `COc1cc(/C=C/C=C/C(=O)NCCN2CCN(C(c3ccccc3)c3ccc(Cl)cc3)CC2)ccc1O` (stereo not drawn) [Example 16, N-(p-chlorobenzhydryl)-N'-[2-{5-(3-methoxy-4-hydroxyphenyl)-2,4-pentadienoyl}aminoethyl]piperazine] the IC50 was 0.06 µM.
`COc1cc(/C=C/C=C/C(=O)NCc2c(CO)cnc(C)c2O)ccc1O` [Example 17] gave an IC50 of 4 µM.
Molecule `COc1cc(/C=C/C=C/C(=O)NCCCCNC(C)=O)ccc1O` [Example 18, N-{5-(3-methoxy-4-hydroxyphenyl)-2,4-pentadienoyl}-N'-acetyl-1,4-diaminobutane] has an IC50 of 6 µM.
`CC/C=C\C/C=C\C/C=C\CCCCCCCC(=O)NCCCCNC(=O)/C=C/C=C/c1ccc(O)c(OC)c1` [Example 19, N-{5-(3-methoxy-4-hydroxyphenyl)-2,4-pentadienoyl}-N'-9,12,15-octadecatrienoyl-1,4-diaminobutane] was tested, and the IC50 was 0.2 µM.
`CC(=O)NCCCCNC(=O)/C=C/C=C/c1ccc(O)c(O)c1` [Example 20, N-{5-(3,4-dihydroxyphenyl)-2,4-pentadienoyl}-N'-acetyl-1,4-diaminobutane] gave an IC50 of 1 µM.
`O=C(/C=C/C=C/c1ccc(O)c(O)c1)NCCCCNC(=O)/C=C/C=C/c1ccc(O)c(O)c1` [Example 21, N,N'-di[5-(3,4-dihydroxyphenyl)-2,4-pentadienoyl]-1,4-diaminobutane] showed an IC50 of 0.03 µM.
`CC/C=C\C/C=C\C/C=C\C/C=C\C/C=C\C/C=C\CCC(=O)NCCCCNC(=O)/C=C/C=C/c1ccc(O)c(O)c1` [Example 22, N-5-(3,4-dihydroxyphenyl)-2,4-pentadienoyl-N'-4,7,10,13,16,19-docosahexaenoyl-1,4-diaminobutane] showed an IC50 of 0.04 µM.
In the case of `CC/C=C\C/C=C\C/C=C\CCCCCCCC(=O)NCCCCNC(=O)/C=C/C=C/c1ccc(O)c(O)c1` [Example 23, N-5-(3,4-dihydroxyphenyl)2,4-pentadienoyl-N'-9,12,15-octadecatrienoyl-1,4-diaminobutane], the IC50 is reported as 0.02 µM.
For `O=C(/C=C/C=C/c1ccc(O)c(O)c1)Nc1ccccc1C(=O)O` [Example 24, N-5-(3,4-dihydroxyphenyl)-2,4-pentadienoylanthranilic acid], the IC50 was 0.1 µM.
With `O=C(/C=C/C=C/c1ccc(O)c(O)c1)Nc1ccc(O)cc1` [Example 25, N-5-(3,4-dihydroxyphenyl)-2,4-pentadienoylaminophenol] the IC50 was 0.08 µM.
For `O=C(/C=C/C=C/c1ccc(O)c(O)c1)N1CCN(C(c2ccccc2)c2ccccc2)CC1` [Example 26], the IC50 was 0.04 µM.
Molecule `O=C(/C=C/C=C/c1ccc(O)c(O)c1)NCCN1CCN(C(c2ccccc2)c2ccccc2)CC1` [Example 27, N-benzhydryl-N'-[2-{5-(3,4-dihydroxyphenyl)-2,4-pentadienoyl}aminoethyl]piperazine] has an IC50 of 0.007 µM.
`O=C(/C=C/C=C/c1ccc(O)c(O)c1)NCCN1CCN(C(c2ccccc2)c2ccc(Cl)cc2)CC1` (stereo not drawn) [Example 28] gave an IC50 of 0.01 µM.
`COc1cc(/C=C/C(=O)NCCCN2CCN(C(c3ccccc3)c3ccccc3)CC2)ccc1O` [Example 34] showed an IC50 of 0.3 µM.
`COc1cc(/C=C/C(=O)NCCCCNC(=O)c2ccccc2N)ccc1O` [Example 35, N-3-[3-methoxy-4-hydroxy]pyenyl-2-butenoyl-N'-(2-amino)benzoylptolesine] was tested, and the IC50 was 20 µM.
Molecule `COc1cc(/C=C/C(=O)NCCN2CCN(C(=O)c3ccccc3N)CC2)ccc1O` [Example 36, N-(o-aminobenzoyl)-N'-[2-[3-[3-methoxy-4-hydroxyphenyl)-2-propenoyl]aminoethyl]piperazine] has an IC50 of 200 µM.
`O=C(/C=C/c1ccc(O)c(O)c1)NCCCN1CCN(C(c2ccccc2)c2ccccc2)CC1` [Example 37, N-benzhydryl-N'-[{3-(3,4-dihydroxyphenyl)-2-propenoyl}-aminopropyl]piperazine] gave an IC50 of 0.03 µM.
For `COc1cc(/C=C/C=C/C(=O)NCCCN2CCN(C(c3ccccc3)c3ccccc3)CC2)ccc1O` [Example 38, N-[3-[5-(3-methoxy-4-hydroxyphenyl)-2,4-pentadienoyl]aminopropyl]-N'-benzhydrylpiperazine], the IC50 was 0.2 µM.
